Read-outs that look alike come from different tables or passages of the source.
Tests used:
[1] = in vitro, human; cited from earlier work
[2] = Comparative pharmacokinetic study of sublingual thin film and oral formulation in rabbits; assay type: in vivo; conditions: rabbit, blood, male New Zealand White Rabbits
Text: Animals. […] No non-disintegrated film fragments were observed.

[3] = presence of food; cited from earlier work
[4] = cited from earlier work; for oral bioavailability: significant first pass metabolism
[5] = BCS class I drug substance; cited from earlier work
[6] = other: sublingual, sublingual route, oral thin film, 10 mg
[7] = oral dosing by gavage as a solution

With CCCCCCCC(=O)N[C@H](CN1CCCC1)[C@H](O)c1ccc2c(c1)OCCO2 [Genz-99067] as the molecule, how does the “first-pass effect indicated by metabolic stability” value [1] read?
Its value is “significant first-pass effect”.

What does the source list for CCCCCCCC(=O)N[C@H](CN1CCCC1)[C@H](O)c1ccc2c(c1)OCCO2.O=C(O)C(O)C(O)C(=O)O [Eliglustat tartrate, N-((1R,2R)-1-(2,3-dihydrobenzo [b] [1,4]dioxin-6-yl)-1-hydroxy-3-(pyrrolidin-1-yl)propan-2-yl) octanamide (2R,3R)-2,3-dihydroxysuccinate]?
AUC(0-inf) [2, 6]: 0.232 ± 0.106 µg·h/mL; AUC(0-t) [2, 6]: 0.226 ± 0.107 µg·h/mL; Cmax [2, 6]: 0.0794 ± 0.0516 µg/mL; MRT last [2, 6]: 2.72 ± 0.359 h; Tmax [2, 6]: 0.667 ± 0.289 h; half-life [2, 6]: 2.55 ± 0.511 h; AUC(0-inf) [2, 7]: 0.0096 ± 0.00604 µg·h/mL; AUC(0-t) [2, 7]: 0.00631 ± 0.00485 µg·h/mL; Cmax [2, 7]: 0.00331 ± 0.00211 µg/mL; MRT last [2, 7]: 1.53 ± 0.546 h; Tmax [2, 7]: 0.583 ± 0.382 h; half-life [2, 7]: 2.35 ± 0.341 h; effect of food on extent of absorption [3]: did not affect the extent of absorption

Which absolute bioavailability ([4]; CERDELGA capsule, CHMP European Assessment report) does the source give for CCCCCCCC(=O)N[C@H](CN1CCCC1)[C@H](O)c1ccc2c(c1)OCCO2 [eliglustat] here?
Its absolute bioavailability is 4.49%±4.13.

And the oral bioavailability [4]?
Its oral bioavailability is “less than 5%”.

What about the oral bioavailability ([4]; listed as Eliglustat) of the same molecule?
Its oral bioavailability is under 5%.

And the solubility [5]?
The solubility was “high”.
